Patent US7217686B1, “DNA sequence encoding oncofetal ferritin protein” (Gardino Investment N.V., priority 1999, dated 2007)
“And” between values parts separate entries of the source, which are not always exact repeats. Equal entries are not always repeated.

Experiments:
[1] = system: activated human lymphocytes in MLR; test: Cytokine secretion by activated human lymphocytes in mixed lymphocyte culture (ELISA); format: cell-based; conditions: 24 h culture supernatant
Experimental: In-vitro activation of human lymphocytes without and with C48/OFF1 treatment was carried out in a mixed lymphocyte culture (MLC). Human peripheral blood lymphocytes ([…]) (responder cells) were incubated with non-related Mitomycin C (40 μgr/ml) treated lymphocytes (2×10^6/ml) in RPMI-1640 medium containing 10% Fetal Calf serum and antibiotics. The cultures were incubated for 24 h in a humidified incubator at 37° C. with 5% CO2. Supernatants were collected and the concentration of the secreted cytokines were measured using an ELISA assay kit. The level of IL-2 R, and interferon (Th1 cytokines) and IL-6 and IL-10 (TH2 cytokines) were determined.

[2] = system: zymosan induced arthritis (ZIA); test: Zymosan induced arthritis (ZIA) in mice; format: in vivo; conditions: for Knee swelling Mean +/− SD (n = 10): C48 30 μg/per mouse daily i.p. from day 1 up to 10
Experimental: Animals: Female ICR mice were obtained from our institution's breeding facilities and were fed a standard diet and tap water ad libidum. Induction of zymosan-induced arthritis: A homogeneous suspension of 25 mg zymosan A (Saccharomyces cerevisiae), dissolves in 1 ml endotoxin-free saline, was obtained by boiling twice followed by sonic emulsification. Arthritis was induced by intrarticular injection of 0.5 mgr/20 l zymosan into each right and left knees. Assessment of ZIA: Mice were evaluated at 14 days post zymosan injections: Swelling was quantitated by measuring the thickness of the knees with a caliper, at 14th day post ZIA and compared to the thickness prior to ZIA. Histologic processing and analysis of knee joints: Knee joints were dissected, fixed, decalcified, dehydrated, and embedded in paraffin. Standard frontal section of 7 μm were prepared and stained with eosin-hematoxilin. Disease severity was assessed by calculation of arthritic index as follows: • Semiquantitative assessment of pathologic findings was performed using a grading system, consisting of five grades. Grade 0: normal synovia; grade 1: 1–5 cellular infiltrates in the microscopic field; grade 2: 6–20 cellular infiltrates; grade 3: 21–50 infiltrates; grade 4: more than […]. • Lymphocytic nodules: grade 1: 1–3 nodules per sectio; grade 2: 4–10 nodules; grade 3: 11–20 nodules; grade 4: more than 20 nodules. • Histiocytes grading: grade 1: 1–10 cell; grade 2: 11–20 cells; grade 3: 21–30 cells; grade 4: more than 30 cells. • Synovial thickness: grade 0: presence of 1 layer of synovial cells; grade 2: 2–3 layers; grade 3: 4–6 layers; grade 4: more than 6 layers. The presence of pannus was considered evidence of severe synovitis. Treatment with C48 (OFF1): Three groups of 10 mice each, were treated by daily intraperitoneal injections of either PBS (control group) or C48 (30 μg/per mouse). Statistical analysis: The significance of comparisons between means was assessed by Student's t-test. Effect of C48 administration on ZIA: Two group of mice (n=10 each) were treated by daily i.p. injections from day 1 up to 10 (10 days), or from day 3 to 10 (7 days) (C48 delayed) following intraarticular zymosan injections. Groups of ZIA mice (n=10) which received daily injections of PBS served as control.

[3] = system: human bone marrow progenitor CFU-GM; test: CFU-GM colony assay with normal human bone marrow mononuclear cells; format: cell-based; conditions: Cond. Med. 5% vol/vol, p43 (PLF) 1 μg/ml, GM-CSF 15 ng/ml; for number of CFU-GM colonies: scored after 14 days
Experimental: Bone marrow samples from 11 healthy volunteer donors were processed by density gradient separation using […] (Sigma diagnostics, St. Louis, Mo., USA) to obtain a purified population of mononuclear cells. Colony assays were performed in a plating medium containing final concentrations of 0.92% methyl cellulose (M-281 powder, 4,000 centipoise, Fisher Scientific Co., Fair Lawn, N.J., USA), rehydrated in Iscove's modified Dulbecco's medium containing 36 mM sodium bicarbonate (Gibco, Grand Island, N.Y., USA), 30% fetal bovine serum (FBS) (HyClone, Logan, Utah, USA) 0.292 mg/ml glutamine, 100 U/ml penicillin and 0.01 mg/ml streptomycin (Biological Industries, Beit Haemek, Israel). Growth factors used were […] GM-CSF Leucomax (Sandoz Pharma) and 5% vol/vol human phytohemagglutinin-M (Difco Laboratories, Detroit, Mich., USA)-induced conditioned medium (Cond. Med.) p43 (PLF) was added at concentration of 1 μg/mL and in neutralization experiments, p43 (PLF) was preincubated with 10× excess of CM-H-9 MoAb at 37° C. for 30 min and the complex added to the assay as above. The colony assay medium contained 10^5 mononuclear cells/ml and each 1 ml was plated into triplicate wells (333 μl/well) of a 24 well tissue culture plate (Greiner, Germany). Water was added to spaces between cells to maximize humidity during incubation of the cultures. The cultures were incubated at 37° C. in 5% CO2 and 55% relative humidity. Plates were scored after 14 days for colonies containing more than 50 cells.

Substance: C48/OFF 1: deletion construct encoding the unique C-terminal 48 aa of OFF1, expressed in E. coli as GST fusion protein (FPSPISPSPSCWHHYTTNRPQPQHHLLRPRRRKRPHSIPTPILIFRSP; left off: a dimerising Fc or GST)
- IL-6 secreted in MLR [1]: 170,779 +/− 58,800 u/mL
- IL-10 secreted in MLR [1]: 1125 +/− 332 u/mL
- sIL-2R secreted in MLR [1]: 50 u/mL
- γ Interferon secreted in MLR [1]: 46 u/mL
- Knee swelling Mean +/− SD (n = 10) ([2]; 14 days post zymosan): 0.24 mm
- Knee swelling Mean +/− SD (n = 10) ([2]; 14 days post zymosan, listed as C48): 0.24 +/− 0.56 mm
- Knee swelling Mean +/− SD (n = 10), C48 delayed ([2]; C48 30 μg/per mouse daily i.p. from day 3 to 10, 14 days post zymosan, listed as C48): 0.33 mm and 0.33 +/− 0.57 mm
- Arthritis Score Mean +/− SD (n = 10) ([2]; C48 daily i.p. from day 1 up to 10, mean grades of pathological findings): 1 +/− 0.83
- Arthritis Score Mean +/− SD (n = 10), C48 delayed ([2]; C48 daily i.p. from day 3 to 10, mean grades of pathological findings): 0.9 +/− 0.83
- severity of arthritis ([2]; C48 from day 1 to 10 or from day 3 to 10, compared with PBS): very mild

Substance: GM-CSF: GM-CSF Leucomax (Sandoz Pharma), growth factor used for comparison [reference compound]
- MEDIAN number of CFU-GM colonies ([3]; 11 donors): 144
- RANGE of number of CFU-GM colonies ([3]; 11 donors): 50–884
- mean number of CFU-GM colonies (AVG.) ([3]; 11 donors): 276+/−257 and 276.2
- number of CFU-GM colonies ([3]; Bone Marrow No. 1): 144
- number of CFU-GM colonies ([3]; Bone Marrow No. 2): 396
- number of CFU-GM colonies ([3]; Bone Marrow No. 3): 114
- number of CFU-GM colonies ([3]; Bone Marrow No. 4): 66
- number of CFU-GM colonies ([3]; Bone Marrow No. 5): 136
- number of CFU-GM colonies ([3]; Bone Marrow No. 6): 250
- number of CFU-GM colonies ([3]; Bone Marrow No. 7): 50
- number of CFU-GM colonies ([3]; Bone Marrow No. 8): 74
- number of CFU-GM colonies ([3]; Bone Marrow No. 9): 520
- number of CFU-GM colonies ([3]; Bone Marrow No. 10): 884
- number of CFU-GM colonies ([3]; Bone Marrow No. 11): 405
